Key:
[1] = system: CAL-85-1 (Breast Carcinoma); assay: Bliss excess, mean over the matrix (fraction); higher = more synergy
In short: (§1)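 Cell lines in DMEM/F12 or RPMI with 10% FBS were plated in 1536-well plates, held 24 hours at 37°C, 5% CO2, then given two-drug dose matrices for 72 hours (DMSO typically 0.2%). Viability was read by CellTiter-Glo 2.0 luminescence and scaled as inhibition from 0 (vehicle wells) to 1 (blank wells). Combination Emax is the second-highest inhibition in the matrix; Bliss excess is observed combination effect minus expected EA + EB − EA·EB, EA and EB being single-agent effects.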

[2] = system: GCIY (Gastric Carcinoma); assay: as above
In short: as §1

[3] = system: HT-144 (Melanoma); assay: as above
In short: as §1

[4] = system: IGROV-1 (Ovarian Carcinoma); assay: as above
In short: as §1

[5] = system: JURL-MK1 (Chronic Myelogenous Leukemia); assay: as above
In short: as §1

[6] = system: MG-63 (Osteosarcoma); assay: as above
In short: as §1

[7] = system: NCI-H1435 (Non-Small Cell Lung Carcinoma); assay: as above
In short: as §1

[8] = system: NCI-H2170 (Squamous Cell Lung Carcinoma); assay: as above
In short: as §1

[9] = system: NTERA-2-cl-D1 (Other Solid Carcinomas); assay: as above
In short: as §1

[10] = system: OCI-M1 (Acute Myeloid Leukemia); assay: as above
In short: as §1

[11] = system: RS4-11 (B-Lymphoblastic Leukemia); assay: as above
In short: as §1

[12] = system: SCC90 (Head and Neck Carcinoma); assay: as above
In short: as §1

[13] = system: TK (B-Cell Non-Hodgkin's Lymphoma); assay: as above
In short: as §1

[14] = system: BC-1 (B-Cell Non-Hodgkin's Lymphoma); assay: combination Emax (second highest fraction inhibited in the dose matrix, 72 h); higher = more inhibition; extreme values may be limits of the assay
In short: as §1

[15] = system: Daudi (Burkitt's Lymphoma); assay: as above
In short: as §1

[16] = system: NCI-H1435 (Non-Small Cell Lung Carcinoma); assay: as above
In short: as §1

[17] = system: NCI-H1944 (Lung Adenocarcinoma); assay: as above
In short: as §1

[18] = system: RPMI-8402 (T-Lymphoblastic Leukemia); assay: as above
In short: as §1

[19] = system: SK-MEL-24 (Melanoma); assay: as above
In short: as §1

[20] = system: TOV-21G (Ovarian Carcinoma); assay: as above
In short: as §1
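Wherever Bliss excess, mean over the matrix is given: after 72 h of two-drug dosing.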

SMILES	Bliss excess [1]	Bliss excess [2]	Bliss excess [3]	Bliss excess [4]	Bliss excess [5]	Bliss excess [6]	Bliss excess [7]	Bliss excess [8]	Bliss excess [9]	Bliss excess [10]	Bliss excess [11]	Bliss excess [12]	Bliss excess [13]	combination Emax [14]	combination Emax [15]	combination Emax [16]	combination Emax [17]	combination Emax [18]	combination Emax [19]	combination Emax [20]
Cc1c2c(nn1C)CSCc1cc(n(C)n1)CSc1cc(c3ccccc3c1)OCCCc1c(C(=O)O)n(C)c3c-2c(Cl)ccc13 [AZD5991] + C[C@@H]1COCCN1C2=NC(=NC(=C2)C3(CC3)[S@](=N)(=O)C)C4=C5C=CNC5=NC=C4 [AZD6738] (first compound max 1 µM, 7x7, partner max 10 µM)	-0.0233	-0.0184	0.0039	0.0449	0.0056	0.0127	0.0488	0.0272	0.0936	0.0061	-0.0197	0.0141	0.0536	1	0.874	0.217	0.928	0.999	0.549	0.798
CC1(C)CCC(CN2CCN(c3ccc(C(=O)NS(=O)(=O)c4ccc(NCC5CCOCC5)c([N+](=O)[O-])c4)c(Oc4cnc5[nH]ccc5c4)c3)CC2)=C(c2ccc(Cl)cc2)C1 [Venetoclax] + COc1cc(Nc2ncc3c(n2)-c2ccc(Cl)cc2C(c2c(F)cccc2OC)=NC3)ccc1C(=O)O [Alisertib] (first compound max 1 µM, 7x7, partner max 10 µM)	-0.007	0.0271	0.0089	-0.0588	-0.0542	-0.0116	-0.0522	-0.0702	0.0304	0.0977	0.0168	0.135	0.223	0.943	0.787	0.287	0.544	0.718	0.401	0.682
CN(C)CCCOc1ccc(-c2ccc3ncc4c(c3c2)n(C2CCOCC2)c(=O)n4C)cn1 [AZD0156] + C=CCn1c(=O)c2cnc(Nc3ccc(N4CCN(C)CC4)cc3)nc2n1-c1cccc(C(C)(C)O)n1 [AZD1775] (first compound max 1 µM, partner max 1 µM)	-0.0155	-0.0428	-0.0268	-0.0826	0.0119	-0.0428	-0.0201	0.0914	-0.0807	0.0077	-0.0405	-0.0542	-0.0045	0.999	0.781	0.193	0.618	1	0.443	0.556
CN(CCO)CC[C@H](CSc1ccccc1)Nc1ccc(S(=O)(=O)NC(=O)c2ccc(N3CCC([C@@H](O)c4ccccc4-c4ccc(Cl)cc4)CC3)cc2)cc1S(=O)(=O)C(F)(F)F [AZD4320] + C1CN(CCC1(C(=O)N[C@@H](CCO)C2=CC=C(C=C2)Cl)N)C3=NC=NC4=C3C=CN4 [Capivasertib] (first compound max 1 µM, 7x7, partner max 3 µM)	-0.0219	0.0298	-0.0412	-0.0385	-0.07	-0.0785	0.0003	-0.023	0.0075	-0.0161	0.0024	-0.0306	0.0106	0.35	0.16	0.876	0.373	0.961	0.452	0.688
Cc1c2c(nn1C)CSCc1cc(n(C)n1)CSc1cc(c3ccccc3c1)OCCCc1c(C(=O)O)n(C)c3c-2c(Cl)ccc13 [AZD5991] + C[C@@H](Nc1cc(F)cc(F)c1)c1cc(C(=O)N(C)C)cc2c(=O)cc(N3CCOCC3)oc12 [AZD8186] (first compound max 1 µM, 7x7, partner max 3 µM)	-0.0067	-0.0611	0.0622	-0.0611	-0.0112	-0.0213	0.0131	0.0095	0.0081	-0.0343	-0.0092	0.0186	-0.0143	1	0.427	0.276	0.282	0.888	0.388	0.253
Cn1cnc2c(F)c(Nc3ccc(Br)cc3Cl)c(C(=O)NOCCO)cc21 [Selumetinib] + CC(C)n1c(=O)n(C)c2cnc3cc(F)c(-c4ccc(OCCCN5CCCCC5)nc4)cc3c21 [AZD1390] (first compound max 10 µM, 7x7, partner max 0.3 µM)	-0.0039	-0.0233	-0.0653	-0.0204	-0.0296	-0.0037	-0.0087	-0.0384	0.0052	0.0164	-0.0245	0.0124	-0.0134	0.328	0.211	0.13	0.285	0.0871	0.495	0.259
NC1(C(=O)N[C@@H](CCO)c2ccc(Cl)cc2)CCN(c2ncnc3[nH]ccc23)CC1 [Capivasertib] + CC(=O)c1c(C)c2cnc(Nc3ccc(N4CCNCC4)cn3)nc2n(C2CCCC2)c1=O [Palbociclib] (first compound max 10 µM, 7x7, partner max 10 µM)	-0.0019	-0.0402	-0.0486	-0.048	-0.0233	0.0404	-0.0245	0.0137	0.0373	-0.0056	-0.0425	-0.0256	-0.0218	0.928	0.491	0.244	0.798	0.947	0.654	0.754
COc1cccc(OCCCN)c1-c1cc(Nc2cnc(C#N)cn2)n[nH]1 [Prexasertib] + C=CCn1c(=O)c2cnc(Nc3ccc(N4CCN(C)CC4)cc3)nc2n1-c1cccc(C(C)(C)O)n1 [AZD1775] (first compound max 1 µM, partner max 1 µM)	0.124	0.0355	0.0666	-0.0343	0.0271	0.141	0.0718	0.101	0.19	0.0152	0.0466	0.0902	-0.0252	1	0.968	0.403	0.815	1	0.703	0.618
CN(C)CCCOc1ccc(-c2ccc3ncc4c(c3c2)n(C2CCOCC2)c(=O)n4C)cn1 [AZD0156] + CCN(CCO)CCCOc1ccc2c(Nc3cc(CC(=O)Nc4cccc(F)c4)[nH]n3)ncnc2c1 [AZD2811] (first compound max 1 µM, 7x7, partner max 1 µM)	-0.0409	-0.0301	0.0066	-0.0527	0.0538	-0.0079	-0.0219	-0.0136	0.0219	0.042	0.0512	-0.0021	0.0495	0.752	0.497	0.101	0.205	0.889	0.16	0.266
CC1(C)CCC(CN2CCN(c3ccc(C(=O)NS(=O)(=O)c4ccc(NCC5CCOCC5)c([N+](=O)[O-])c4)c(Oc4cnc5[nH]ccc5c4)c3)CC2)=C(c2ccc(Cl)cc2)C1 [Venetoclax] + CN(C)CCCOc1ccc(-c2ccc3ncc4c(c3c2)n(C2CCOCC2)c(=O)n4C)cn1 [AZD0156] (first compound max 1 µM, 7x7, partner max 1 µM)	-0.0476	0.0131	0.0366	-0.0236	-0.0151	0.0063	-0.0029	0.024	-0.0372	-0.0299	-0.0088	0.0217	-0.0227	0.555	0.054	0.17	0.228	0.188	0.281	0.18
COc1nnc2ccc(N3CCC(c4ccc(OCCN5CCN(C)C(=O)[C@H]5C)cc4)CC3)nn12 [AZD5153] + CCN(CCO)CCCOc1ccc2c(Nc3cc(CC(=O)Nc4cccc(F)c4)[nH]n3)ncnc2c1 [AZD2811] (first compound max 1 µM, 7x7, partner max 1 µM)	-0.0411	-0.0388	0.0216	-0.0574	-0.0258	-0.037	0.0052	0.0103	-0.0385	0.06	-0.0195	-0.0547	0.0124	0.943	0.677	0.339	0.711	0.999	0.528	0.749
CC1(C)CCC(CN2CCN(c3ccc(C(=O)NS(=O)(=O)c4ccc(NCC5CCOCC5)c([N+](=O)[O-])c4)c(Oc4cnc5[nH]ccc5c4)c3)CC2)=C(c2ccc(Cl)cc2)C1 [Venetoclax] + Cn1cnc2c(F)c(Nc3ccc(Br)cc3Cl)c(C(=O)NOCCO)cc21 [Selumetinib] (first compound max 1 µM, 7x7, partner max 3 µM)	-0.0368	-0.12	-0.0616	-0.0068	-0.0249	-0.0292	0.0021	-0.0427	-0.0415	-0.0203	0.0052	0.161	-0.0251	0.408	0.115	0.156	0.239	0.084	0.553	0.216

Reference: the supplement of paper PMC11061612
